Source: PubChem BioAssay AID1919672
Results filed as inconclusive are left out.

Target: Excitatory amino acid transporter 2 (Homo sapiens) (UniProt P43004)
Experiment: aspartate transport by overexpressed wild-type EAAT2 – HEK293 overexpressing cells, iAspSnFR biosensor, flow cytometry, dose response (AID 1919672)
Conditions: HEK293 SLC1A2-OE, iAspSnFR aspartate uptake

Chain of Excitatory amino acid transporter 2 (Homo sapiens) (P43004 whole entry, looked up, the tested form may be a part): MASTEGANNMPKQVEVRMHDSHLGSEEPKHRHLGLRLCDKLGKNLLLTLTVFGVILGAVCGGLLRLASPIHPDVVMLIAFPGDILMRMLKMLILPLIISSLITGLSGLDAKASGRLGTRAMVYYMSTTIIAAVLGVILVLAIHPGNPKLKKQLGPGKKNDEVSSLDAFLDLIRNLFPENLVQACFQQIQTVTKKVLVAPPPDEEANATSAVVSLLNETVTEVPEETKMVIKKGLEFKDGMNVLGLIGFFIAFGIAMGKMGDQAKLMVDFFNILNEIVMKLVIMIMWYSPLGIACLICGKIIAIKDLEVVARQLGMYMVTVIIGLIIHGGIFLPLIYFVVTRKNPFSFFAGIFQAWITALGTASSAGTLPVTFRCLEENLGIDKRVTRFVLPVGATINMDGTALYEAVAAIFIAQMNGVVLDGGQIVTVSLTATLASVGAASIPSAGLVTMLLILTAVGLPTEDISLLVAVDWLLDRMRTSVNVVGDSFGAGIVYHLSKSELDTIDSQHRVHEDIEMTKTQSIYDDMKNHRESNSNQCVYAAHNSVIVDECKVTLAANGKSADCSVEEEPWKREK

SMILES: N[C@@H](CC(=O)O)C(=O)O
- EC50: 11 µM
